Each structure is given as a SMILES string.

Data set [1] has as its target membrane-bound folate-binding-protein receptor (FBP). Particulars: cited from earlier work.
Data set [2] is described as follows: physchem. It is filed as physicochemical. To be noted: water. On the procedure:
The crude product contained a mixture of folate-deferoxamine conjugates, wherein the folate is linked to DF via its α-carboxyl or γ-carboxyl group as well as unreacted folic acid. The two isomers of DF-folate were isolated and purified on a weak anion-exchange column. Briefly, the product mixture was loaded onto a 1.5 cm×15 cm […] column pre-equilibrated in 10 mM NH4 CO3 buffer (pH 7.9). The column was washed with 50 mL 10 mM NH4 HCO3 and then eluted with a 500 mL gradient of 80-180 mM NH4 HCO3 followed by 150 mL 500 mM NH4 HCO3. Three folate-containing peaks were obtained as detected by UV absorbance at 363 nm. Each peak was collected, lyophilized, and redissolved in deionized water. The purity of each component was confirmed by reverse-phase high pressure liquid chromatography (HPLC) with a 10 mm×250 mm Licrosorb RP-18 column (Altech, Deerfield, Ill.), and evaluation of the conjugates' molecular weights was determined by fast-atom bombardment mass spectroscopy (FAB-MS). The characteristic pKa values of the two DF-folate isomers were obtained by titration on a pH/ion analyzer (Corning, Corning, N.Y.). […] Since the two isoforms of DF-folate conjugate retain either a free γ-carboxyl or free α-carboxyl, they can be distinguished from each other and from unreacted folic acid by their characteristic pKa values, which were determined by titration.

The subject of data set [3] is membrane transport protein. To be noted: facilitated transport by membrane transport protein; cited from earlier work.

On to `Nc1nc2ncc(CNc3ccc(C(=O)N[C@@H](CCC(=O)O)C(=O)O)cc3)nc2c(=O)[nH]1` [folic acid, Folic acid, reference compound], for which, in data set [1], the Ka is 500 pM. Also, the figures for the pKa in data set [2] (pKa1) and in data set [2] (pKa2) were 2.5 and 4.5, respectively. Moreover, the Km in data set [3] is 1.5 µM.

The record behind these values is patent US5688488A, “Composition and method for tumor imaging” (priority 1995, dated 1997).
